Biological target: T1, L1 transport system (large neutral amino acid carrier, L1-system carrier) (Rattus norvegicus, UniProt Q63016)
T1 construct: functionality of their endogenous transporters such as the L1-system carrier; endogenous in cells; host or cells: rat primary cerebrovascular (brain microcapillary) endothelial cells, RBEC
Assay: Competitive binding assay to the brain L1 transport system (L-[U-14C]phenylalanine on rat primary cerebrovascular endothelial cells)
Settings: for Status of Binding: compounds of Example 4, 10^−6, 10^−5 and 10^−4, Δ versus phenylalanine
How it was run: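 Cells were primary cerebral microvascular endothelial cells from cortices of 24-day-old rats, isolated by collagenase/DNAse digestion, dextran separation and mesh filtration.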

T1 sequence (Q63016 whole entry): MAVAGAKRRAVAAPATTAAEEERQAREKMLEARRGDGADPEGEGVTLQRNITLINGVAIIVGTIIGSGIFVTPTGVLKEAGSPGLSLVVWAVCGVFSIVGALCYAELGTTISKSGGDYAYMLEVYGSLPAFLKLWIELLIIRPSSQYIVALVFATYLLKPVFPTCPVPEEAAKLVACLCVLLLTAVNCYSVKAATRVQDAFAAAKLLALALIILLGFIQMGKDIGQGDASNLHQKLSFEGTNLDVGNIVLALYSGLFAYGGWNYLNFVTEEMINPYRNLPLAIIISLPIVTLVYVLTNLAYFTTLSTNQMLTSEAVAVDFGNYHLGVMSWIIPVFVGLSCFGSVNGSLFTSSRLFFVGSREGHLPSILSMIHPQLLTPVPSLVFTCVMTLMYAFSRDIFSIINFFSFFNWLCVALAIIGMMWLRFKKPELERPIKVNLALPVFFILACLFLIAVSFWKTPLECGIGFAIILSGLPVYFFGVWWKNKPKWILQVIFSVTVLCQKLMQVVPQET
T1 sequence (Q794F9 whole entry partner): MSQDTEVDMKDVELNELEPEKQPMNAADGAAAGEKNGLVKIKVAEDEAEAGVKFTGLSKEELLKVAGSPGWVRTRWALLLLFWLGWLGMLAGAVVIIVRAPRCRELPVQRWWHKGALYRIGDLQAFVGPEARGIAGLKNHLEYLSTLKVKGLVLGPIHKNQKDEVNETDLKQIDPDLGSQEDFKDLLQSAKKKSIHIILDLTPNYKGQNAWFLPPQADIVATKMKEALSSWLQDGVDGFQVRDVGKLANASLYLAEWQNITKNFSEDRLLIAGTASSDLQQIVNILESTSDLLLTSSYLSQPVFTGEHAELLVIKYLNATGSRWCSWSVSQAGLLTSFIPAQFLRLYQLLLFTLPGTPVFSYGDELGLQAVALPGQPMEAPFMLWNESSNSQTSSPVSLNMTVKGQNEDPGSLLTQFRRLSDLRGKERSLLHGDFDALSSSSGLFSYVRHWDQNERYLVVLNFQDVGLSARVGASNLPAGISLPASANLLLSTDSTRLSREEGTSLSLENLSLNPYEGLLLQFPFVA

| Structure (SMILES) | Status of Binding | Comparison with the Binding of Phenylalanine (10^−4 M) | Comparison with the Binding of Phenylalanine (10^−5 M) | Comparison with the Binding of Phenylalanine (10^−6 M) |
| --- | --- | --- | --- | --- |
| N[C@@H](Cc1cccc(CSc2nnnn2-c2ccc(O)cc2)c1)C(=O)O [drawing 480] | 3 (3: Δ > 10%, significantly higher binding affinity than phenylalanine) |  |  |  |
| NC(=O)C(N)Cc1cccc(CSc2nccc(C(F)(F)F)n2)n1 (centres unmarked) [Compound 22] |  | 0 (X < 0 Rank 0) | 1 (0 < X < 10 Rank 1) | 0 (X < 0 Rank 0) |
| NC(Cc1cccc(-c2cccc(N3CCN(c4ccccn4)CC3)c2)c1)C(=O)O (centres unmarked) [Compound 113] |  | 0 (X < 0 Rank 0) | 0 (X < 0 Rank 0) | 2 (10 < X < 20 Rank 2) |
| NC(Cc1ccc(-c2ccc(CN3CC=CCC3)cc2)cc1)C(=O)O (centres unmarked) [Compound 44] |  | 0 (X < 0 Rank 0) | 1 (0 < X < 10 Rank 1) | 0 (X < 0 Rank 0) |
| O=C(NC(Cc1cccc(CSc2nccc(O)n2)c1)C(=O)O)NC(c1ccccc1)c1ccccc1 (centres unmarked) [Compound 17] |  | 1 (0 < X < 10 Rank 1) | 1 (0 < X < 10 Rank 1) | 2 (10 < X < 20 Rank 2) |
| NC(Cc1cccc(-c2cccc(N3CCN(c4ccc(F)cc4)CC3)c2)c1)C(=O)O (centres unmarked) [Compound 105] |  | 2 (10 < X < 20 Rank 2) | 2 (10 < X < 20 Rank 2) | 2 (10 < X < 20 Rank 2) |
| O=C(Nc1ccc(-c2ccccc2)cc1)NC(Cc1cccc(CSc2nnnn2-c2ccccc2)c1)C(=O)O (centres unmarked) [Compound 54] |  | 1 (0 < X < 10 Rank 1) | 3 (X > 20 Rank 3) | 2 (10 < X < 20 Rank 2) |
| CN(C)CCn1nnnc1SCc1cccc(CC(N)C(=O)O)n1 (centres unmarked) [Compound 88] |  | 1 (0 < X < 10 Rank 1) | 1 (0 < X < 10 Rank 1) | 1 (0 < X < 10 Rank 1) |
| CN(C)CCn1nnnc1SCc1cccc(C[C@H](N)C(=O)O)c1 [drawing 485] | 1 (1: −10 > Δ > −50%, lower binding affinity than phenylalanine) |  |  |  |
| O=C(Nc1ccc(-c2ccccc2)cc1)NC(Cc1cccc(CSc2nc3ccccc3[nH]2)n1)C(=O)O (centres unmarked) [Compound 62] |  | 0 (X < 0 Rank 0) | 0 (X < 0 Rank 0) | 3 (X > 20 Rank 3) |
| NC(Cc1cccc(CN2CCN(c3ncccn3)CC2)n1)C(=O)O (centres unmarked) [Compound 158] |  | 0 (X < 0 Rank 0) | 0 (X < 0 Rank 0) | 1 (0 < X < 10 Rank 1) |
| CC(=O)c1ccc(N2CCN(Cc3cccc(CC(N)C(=O)O)c3)CC2)cc1 (centres unmarked) [Compound 112] |  | 2 (10 < X < 20 Rank 2) | 3 (X > 20 Rank 3) | 3 (X > 20 Rank 3) |
| NC(Cc1cccc(CSc2nnc(-c3ccccc3)o2)c1)C(=O)O (centres unmarked) [Compound 1] |  | 2 (10 < X < 20 Rank 2) | 3 (X > 20 Rank 3) | 2 (10 < X < 20 Rank 2) |
| N[C@@H](Cc1cccc(CS(=O)(=O)c2nc3ccccc3[nH]2)c1)C(=O)O [drawing 478] | 2 (2: 10% ≧ Δ ≧ −10% similar binding affinity to phenylalanine) |  |  |  |
| CN(C)CCn1nnnc1SCc1ccc(-c2ccc(CC(N)C(=O)O)cc2)cc1 (centres unmarked) [Compound 118] |  | 3 (X > 20 Rank 3) | 3 (X > 20 Rank 3) | 3 (X > 20 Rank 3) |
| NC(Cc1cccc(CSc2ncccc2C(=O)O)c1)C(=O)O (centres unmarked) [Compound 137] |  | 0 (X < 0 Rank 0) | 0 (X < 0 Rank 0) | 2 (10 < X < 20 Rank 2) |
| CC(=O)c1ccc(N2CCN(Cc3cccc(CC(N)C(=O)O)n3)CC2)cc1 (centres unmarked) [Compound 127] |  | 1 (0 < X < 10 Rank 1) | 2 (10 < X < 20 Rank 2) | 0 (X < 0 Rank 0) |
| CN(C)CCn1nnnc1Sc1cccc(-c2cccc(CC(N)C(=O)O)c2)c1 (centres unmarked) [Compound 103] |  | 2 (10 < X < 20 Rank 2) | 2 (10 < X < 20 Rank 2) | 2 (10 < X < 20 Rank 2) |
| O=C(Nc1ccc(-c2ccccc2)cc1)NC(Cc1cccc(CSc2nnnn2-c2ccc(O)cc2)c1)C(=O)O (centres unmarked) [Compound 51] |  | 0 (X < 0 Rank 0) | 3 (X > 20 Rank 3) | 2 (10 < X < 20 Rank 2) |
| NC(=O)C(N)Cc1cccc(CSc2nnc(-c3ccncc3)o2)c1 (centres unmarked) [Compound 11] |  | 0 (X < 0 Rank 0) | 1 (0 < X < 10 Rank 1) | 2 (10 < X < 20 Rank 2) |

| Structure (SMILES) | Status of Binding | Comparison with the Binding of Phenylalanine (10^−4 M) | Comparison with the Binding of Phenylalanine (10^−5 M) | Comparison with the Binding of Phenylalanine (10^−6 M) |
| --- | --- | --- | --- | --- |
| Cn1cnnc1SCc1cccc(CC(N)C(=O)O)c1 (centres unmarked) [Compound 141] |  | 0 (X < 0 Rank 0) | 0 (X < 0 Rank 0) | 1 (0 < X < 10 Rank 1) |
| N[C@@H](Cc1cccc(C[S+]([O-])c2nnc(-c3ccccc3)[nH]2)c1)C(=O)O (some centres unmarked) [drawing 482] | 1 (1: −10 > Δ > −50%, lower binding affinity than phenylalanine) |  |  |  |
| CN(C)CCn1nnnc1SCc1cccc(CC(N)C(=O)O)c1 (centres unmarked) [Compound 73] |  | 1 (0 < X < 10 Rank 1) | 3 (X > 20 Rank 3) | 1 (0 < X < 10 Rank 1) |
| NC(Cc1cccc(CSc2nnnn2-c2ccccc2)c1)C(=O)O (centres unmarked) [Compound 8] |  | 3 (X > 20 Rank 3) | 3 (X > 20 Rank 3) | 3 (X > 20 Rank 3) |
| CCOC(=O)c1c[nH]c(SCc2ccc(-c3ccc(CC(N)C(=O)O)cc3)cc2)nc1=O (centres unmarked) [Compound 87] |  | 2 (10 < X < 20 Rank 2) | 3 (X > 20 Rank 3) | 3 (X > 20 Rank 3) |
| NC(=O)C(N)Cc1cccc(CSc2nnnn2-c2ccc(O)cc2)c1 (centres unmarked) [Compound 4] |  | 2 (10 < X < 20 Rank 2) | 3 (X > 20 Rank 3) | 3 (X > 20 Rank 3) |
| Cn1cnnc1SCc1ccc(-c2ccc(CC(N)C(=O)O)cc2)cc1 (centres unmarked) [Compound 97] |  | 2 (10 < X < 20 Rank 2) | 3 (X > 20 Rank 3) | 2 (10 < X < 20 Rank 2) |
| NC(Cc1cccc(CSc2nc(-c3ccccc3)c(-c3ccccc3)o2)c1)C(=O)O (centres unmarked) [Compound 104] |  | 2 (10 < X < 20 Rank 2) | 3 (X > 20 Rank 3) | 3 (X > 20 Rank 3) |
| O=C(O)C(Cc1cccc(CSc2nnc(-c3ccncc3)o2)c1)NS(=O)(=O)c1ccc(F)cc1 (centres unmarked) [Compound 12] |  | 0 (X < 0 Rank 0) | 0 (X < 0 Rank 0) | 2 (10 < X < 20 Rank 2) |
| Cc1nnc(Sc2cccc(-c3cccc(CC(N)C(=O)O)c3)c2)s1 (centres unmarked) [Compound 111] |  | 2 (10 < X < 20 Rank 2) | 3 (X > 20 Rank 3) | 3 (X > 20 Rank 3) |
| N#CC1(c2ccccc2)CCN(Cc2ccc(-c3ccc(CC(N)C(=O)O)cc3)cc2)CC1 (centres unmarked) [Compound 147] |  | 0 (X < 0 Rank 0) | 0 (X < 0 Rank 0) | 1 (0 < X < 10 Rank 1) |
| NC(Cc1cccc(CSc2nc3ccccc3[nH]2)n1)C(=O)O (centres unmarked) [Compound 27] |  | 3 (X > 20 Rank 3) | 3 (X > 20 Rank 3) | 3 (X > 20 Rank 3) |
| NC(Cc1cccc(CSc2nnnn2-c2ccc(O)cc2)c1)C(=O)O (centres unmarked) [Compound 3] |  | 3 (X > 20 Rank 3) | 3 (X > 20 Rank 3) | 3 (X > 20 Rank 3) |
| Cc1nnc(SCc2cccc(CC(N)C(=O)O)c2)s1 (centres unmarked) [Compound 81] |  | 2 (10 < X < 20 Rank 2) | 3 (X > 20 Rank 3) | 0 (X < 0 Rank 0) |
| COc1ccc(-n2nnnc2[S+]([O-])Cc2cccc(C[C@H](N)C(=O)O)c2)cc1 (some centres unmarked) [drawing 481] | 3 (3: Δ > 10%, significantly higher binding affinity than phenylalanine) |  |  |  |
| N[C@@H](Cc1ccccc1)C(=O)NC(Cc1cccc(CSc2nc3ccccc3o2)n1)C(=O)O (some centres unmarked) [Compound 32] |  | 0 (X < 0 Rank 0) | 1 (0 < X < 10 Rank 1) | 3 (X > 20 Rank 3) |
| NC(Cc1cccc(-c2cccc(Sc3ccc4ccccc4n3)c2)c1)C(=O)O (centres unmarked) [Compound 144] |  | 0 (X < 0 Rank 0) | 0 (X < 0 Rank 0) | 1 (0 < X < 10 Rank 1) |
| NC(Cc1cccc(CSc2nnc(-c3ccncc3)o2)c1)C(=O)O (centres unmarked) [Compound 10] |  | 0 (X < 0 Rank 0) | 1 (0 < X < 10 Rank 1) | 3 (X > 20 Rank 3) |
| Cc1nc(SCc2ccc(-c3ccc(CC(N)C(=O)O)cc3)cc2)sc1CC(=O)O (centres unmarked) [Compound 122] |  | 0 (X < 0 Rank 0) | 0 (X < 0 Rank 0) | 1 (0 < X < 10 Rank 1) |

Reference: patent publication US20060167057A1, “Compounds for the treatment of CNS and amyloid associated diseases” (priority 2004, published 2006)
